Assay results published in patent US7351858B2, “Ortho-substituted benzoic acid derivatives for the treatment of insulin resistance” (AstraZeneca AB, priority 2002, dated 2008).
pEC50: −log10 of the molar value.

Molecular target: T1, human PPAR alpha (Homo sapiens, UniProt Q07869)
T1 construct: expressed in transfected cells; host or cells: U2-OS (human osteogenic sarcoma), transient electroporation of a pSG5-based expression vector
T1 sequence (Q07869 239-466 limits assumed): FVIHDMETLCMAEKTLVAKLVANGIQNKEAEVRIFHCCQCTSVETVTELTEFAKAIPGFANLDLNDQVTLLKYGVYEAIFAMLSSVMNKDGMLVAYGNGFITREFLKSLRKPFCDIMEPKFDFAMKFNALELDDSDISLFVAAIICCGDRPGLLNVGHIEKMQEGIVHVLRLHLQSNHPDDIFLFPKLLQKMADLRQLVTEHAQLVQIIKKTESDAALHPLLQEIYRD
Assay: GAL4-PPARα ligand binding domain luciferase reporter transactivation assay in transiently transfected U2-OS cells
Format: cell-based
Details: about 24 hours exposure, concentration giving 50% of maximal activation by reference compound ETYA
Procedure: U2-OS, (Osteogenic sarcoma, Human) was purchased from ATCC, USA. Cells were expanded and refrozen in batches from passage number six. Cells were cultured in Dulbecco's modified Eagle medium (DMEM) with 25 mM glucose, 2 mM glutamine or 4 mM L-alanyl-L-glutamine, 10% fetal calf serum, at 5% CO2. Phosphate buffered saline (PBS) without addition of calcium or magnesium was used. All cell culture reagents were from Gibco (USA) and 96-well cell culture plates were purchased from Wallach.
Standard recombinant DNA techniques were carried out as described by Ausubel (7). The Luciferase reporter vector, pGL5UAS (clone consists of five copies of the GAL4 DNA binding sequence, 5′-[…]-3′, cloned into the SacI/XhoI sites of pGL3-Promoter (Promega). The SacI/XhoI fragment carrying the UAS sites was constructed using annealed overlapping oligonucleotides.
Expression vectors used are based upon pSG5 (Stratagene). All vectors contain an EcoRI/NheI fragment encoding the DNA binding domain of GAL4 (encoding amino acid positions 1-145 of database accession number P04386) followed by an in-frame fusion to a fragment encoding the nuclear localisation sequence from T antigen of Polyoma Virus. […]
After adjustment of the amount of cell medium to 75 μl in each well, 50 μl test compound solution was added. […] After lysis, luciferase activity was measured in a 1420 Multiwell counter, Victor, from Wallach. […]

Row | Structure (SMILES) | pEC50
1 | CCN(Cc1ccc(C(F)(F)F)cc1)C(=O)COc1ccc(CCOc2ccccc2C(=O)O)cc1 [Example 5, 2-[2-(4-{2-[Ethyl(4-trifluoromethylbenzyl)amino]-2-oxoethoxy}phenyl)ethoxy]benzoic acid] | 7.32
2 | CCN(Cc1ccc(Cl)cc1)C(=O)COc1ccc(CCSc2ccccc2C(=O)O)cc1 [Example 3, 2-{[2-(4-{2-[(4-chlorobenzyl)(ethyl)amino]-2-oxoethoxy}phenyl)ethyl]thio}benzoic acid] | 6.30
